Measurements from patent publication US11174251B2, “Compositions and methods for inhibition of the JAK pathway” (Rigel Pharmaceuticals, Inc., priority 2010, dated 2021).
Where a name gives a salt, the structure may show the parent alone.

Target: T1, JAK3 (Homo sapiens, UniProt P52333)
T1 construct: The Ramos B-cell line was acquired from ATCC (ATCC Catalog No. CRL-1596); host or cells: Ramos B-cell line (human)
T1 sequence (P52333 1-1124): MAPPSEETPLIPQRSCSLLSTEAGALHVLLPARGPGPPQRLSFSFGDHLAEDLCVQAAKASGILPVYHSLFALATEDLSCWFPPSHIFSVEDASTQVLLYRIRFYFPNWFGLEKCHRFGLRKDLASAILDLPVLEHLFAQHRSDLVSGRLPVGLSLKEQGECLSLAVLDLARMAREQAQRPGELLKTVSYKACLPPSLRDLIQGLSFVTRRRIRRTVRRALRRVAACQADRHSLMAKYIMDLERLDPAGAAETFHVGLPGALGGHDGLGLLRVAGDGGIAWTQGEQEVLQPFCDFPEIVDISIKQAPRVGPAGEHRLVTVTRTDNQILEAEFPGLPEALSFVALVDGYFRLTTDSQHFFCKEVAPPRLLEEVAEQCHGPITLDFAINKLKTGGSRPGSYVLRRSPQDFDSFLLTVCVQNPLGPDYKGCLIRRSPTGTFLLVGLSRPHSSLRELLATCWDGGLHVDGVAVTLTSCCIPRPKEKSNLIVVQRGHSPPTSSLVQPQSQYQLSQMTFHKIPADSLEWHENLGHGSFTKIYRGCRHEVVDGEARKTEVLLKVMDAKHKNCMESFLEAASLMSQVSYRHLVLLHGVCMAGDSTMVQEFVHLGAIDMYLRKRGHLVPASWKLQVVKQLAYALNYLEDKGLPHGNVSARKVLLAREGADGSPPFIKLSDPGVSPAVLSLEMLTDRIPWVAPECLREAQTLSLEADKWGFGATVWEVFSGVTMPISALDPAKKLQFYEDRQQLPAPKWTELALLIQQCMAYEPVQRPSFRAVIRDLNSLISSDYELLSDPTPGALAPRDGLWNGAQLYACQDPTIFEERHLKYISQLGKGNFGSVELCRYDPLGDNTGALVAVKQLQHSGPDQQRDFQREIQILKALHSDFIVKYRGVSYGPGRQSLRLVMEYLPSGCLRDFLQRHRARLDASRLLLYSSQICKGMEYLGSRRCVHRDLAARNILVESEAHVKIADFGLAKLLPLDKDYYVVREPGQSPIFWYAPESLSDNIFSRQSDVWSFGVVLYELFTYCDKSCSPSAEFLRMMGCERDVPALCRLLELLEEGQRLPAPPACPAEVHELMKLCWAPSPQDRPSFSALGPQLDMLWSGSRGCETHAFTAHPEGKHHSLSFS
Experiment: Assay for CD23 expression on Ramos B-cells stimulated by IL-4 (Table IV: ability to inhibit JAK3 activity)
Assay type: cell-based
Details: tested under conditions described in Example 3 (so in the source)
Text: One means of assaying for such inhibition is detection of the effect of the 2,4-pyrimidinediamine compounds on the upregulation of downstream gene products. In the Ramos/IL4 assay, B-cells are stimulated with the cytokine Interleukin-4 (IL-4) leading to the activation of the JAK/Stat pathway through phosphorylation of the JAK family kinases, JAK1 and JAK3, which in turn phosphorylate and activate the transcription factor Stat-6. […] To study the effect of inhibitors (for example, the 2,4-substituted pyrimindinediamine compounds described herein) on the JAK1 and JAK3 kinases, human Ramos B cells are stimulated with human IL-4. 20 to 24 hours post stimulation, cells are stained for upregulation of CD23 and analyzed using FACS.
B-cells stimulated with cytokine Interleukin-4 (IL-4) activate the JAK/Stat pathway through phosphorylation of the JAK family kinases, JAK-1 and JAK-3, which in turn phosphorylate and activate the transcription factor Stat-6. […] To study the effect of inhibitors on the JAK family kinases, human Ramos B cells were stimulated with human IL-4 and the surface expression of CD23 was measured.
The day before the experiment, Ramos B-cells were diluted to 3.5×10^5 cells/mL to ensure that they were in a logarithmic growth phase.
Cells were spun down and suspended in RPMI with 5% serum. 5×10^4 cells were used per point in a 96-well tissue culture plate. Cells were pre-incubated with compound or DMSO (Sigma-Aldrich, St. Louis, Mo., Cat No. D2650) vehicle control for 1 hour in a 37° C. incubator. Cells were then stimulated with IL-4 (Peprotech Inc., Rocky Hill, N.J., Cat No. 200-04) for a final concentration of 50 units/mL for 20-24 hours. […] Detection was performed using a BD LSR I System Flow Cytometer, purchased from Becton Dickinson Biosciences of San Jose, Calif.
The compound designations in Table IV are consistent with those of Tables I-II above.

| Compound | IC50 [nM] |
| --- | --- |
| Cc1cnc(Nc2cc(C)c(C)c(C)c2)nc1Nc1ccc2oc(=O)n(C)c2c1 [Compound I-126, 5-(2-(3,4,5-trimethylphenylamino)-5-methylpyrimidin-4-ylamino)-3-methylbenzo[d]oxazol-2(3H)-one trifluoroacetate salt] | < 500 |
| COCCOc1ccc(Nc2ncc(Cl)c(Nc3ccc4oc(=O)[nH]c4c3)n2)c(F)c1OCCOC [Compound I-78, 5-(5-chloro-2-(2-fluoro-3,4-bis(2-methoxyethoxy)phenylamino)pyrimidin-4-ylamino)benzo[d]oxazol-2(3H)-one trifluoroacetate salt] | < 500 |
| Cc1cnc(Nc2ccc3c(c2)C(=O)NC3)nc1Nc1ccc2oc(=O)[nH]c2c1 [II-11, 5-methyl-N4-(2-oxo-2,3-dihydro-1,3-benzoxazol-5-yl)-N2-(1-oxo-1,3-dihydro-2H-isoindol-6-yl)-2,4-pyrimidinediamine] | < 500 |
| CCc1ccc(Nc2ncc(Cl)c(Nc3ccc4oc(=O)[nH]c4c3)n2)c(F)c1OC [Compound I-71, 5-(5-chloro-2-(4-ethyl-2-fluoro-3-methoxyphenylamino)pyrimidin-4-ylamino)benzo[d]oxazol-2(3H)-one trifluoroacetate salt] | < 500 |
| Cc1cc(Nc2nc(Nc3ccc(F)c(S(C)(=O)=O)c3)ncc2F)cc2[nH]c(=O)oc12 [Compound I-173, 5-(2-(4-fluoro-3-(methylsulfonyl)phenylamino)-5-fluoropyrimidin-4-ylamino)-7-methylbenzo[d]oxazol-2(3H)-one trifluoroacetate salt] | < 500 |
| COCCOc1c(C)ccc(Nc2nccc(Nc3ccc4oc(=O)[nH]c4c3)n2)c1F [Compound I-62, 5-(2-(2-fluoro-3-(2-methoxyethoxy)-4-methylphenylamino)pyrimidin-4-ylamino)benzo[d]oxazol-2(3H)-one] | 500 to 5000 |
| CCOc1ccc(Nc2ncc(C)c(Nc3ccc4oc(=O)[nH]c4c3)n2)c(F)c1OCC [Compound I-101, 5-(2-(3,4-diethoxy-2-fluorophenylamino)-5-methylpyrimidin-4-ylamino)benzo[d]oxazol-2(3H)-one] | < 500 |
| Cc1cc(C)cc(Nc2ncc(Cl)c(Nc3ccc4oc(=O)[nH]c4c3)n2)c1 [Compound I-10, 5-(5-chloro-2-(3,5-dimethylphenylamino)pyrimidin-4-ylamino)benzo[d]oxazol-2(3H)-one trifluoroacetate salt] | < 500 |
| COc1cc(Nc2ncc(F)c(Nc3ccc4oc(=O)[nH]c4c3)n2)cc(C(F)(F)F)c1 [Compound I-211, 5-fluoro-N2-(3-methoxy-5-trifluoromethyl)phenyl-N4-(2-oxo-2,3-dihydro-1,3-benzoxazol-5-yl)-2,4-pyrimidinediamine] | < 500 |
| COc1cc(Nc2ncc(Cl)c(Nc3ccc4oc(=O)[nH]c4c3)n2)cc(C)c1C [Compound I-52, 5-(5-chloro-2-(3-methoxy-4,5-dimethylphenylamino)pyrimidin-4-ylamino)benzo[d]oxazol-2(3H)-one] | < 500 |
| NC(=O)c1ccc(Nc2nccc(Nc3ccc4oc(=O)[nH]c4c3)n2)cc1 [Compound I-2, 4-(4-(2-oxo-2,3-dihydrobenzo[d]oxazol-5-ylamino)pyrimidin-2-ylamino)benzamide trifluoroacetate salt] | < 500 |
| CC(C)(C)c1ccc(Nc2ncc(F)c(Nc3ccc4oc(=O)[nH]c4c3)n2)cc1 [Compound I-201, 5-(2-(4-tert-butylphenylamino)-5-fluoropyrimidin-4-ylamino)benzo[d]oxazol-2(3H)-one trifluoroacetate salt] | 500 to 5000 |
| O=C(NC1CC1)c1ccc(Nc2ncc(F)c(Nc3ccc4oc(=O)[nH]c4c3)n2)cc1 [Compound I-161, N-cyclopropyl-4-(5-fluoro-4-(2-oxo-2,3-dihydrobenzo[d]oxazol-5-ylamino)pyrimidin-2-ylamino)benzamide formate salt] | < 500 |
| COc1cccc(Nc2ncc(Cl)c(Nc3ccc4oc(=O)[nH]c4c3)n2)c1F [Compound I-21, 5-(5-chloro-2-(2-fluoro-3-methoxyphenylamino)pyrimidin-4-ylamino)benzo[d]oxazol-2(3H)-one trifluoroacetate salt] | < 500 |
| Cc1cnc(Nc2cc(C)c(C(=O)O)c(C)c2)nc1Nc1ccc2oc(=O)[nH]c2c1 [Compound I-140, N2-(4-carboxy-3,5-dimethyl)phenyl-5-methyl-N4-(2-oxo-2,3-dihydro-1,3-benzoxazol-5-yl)-2,4-pyrimidinediamine] | 500 to 5000 |
| Cc1cc(Nc2ncc(CO)c(Nc3ccc4oc(=O)[nH]c4c3)n2)cc(C)c1F [Compound I-79, 5-(2-(4-fluoro-3,5-dimethylphenylamino)-5-(hydroxymethyl)pyrimidin-4-ylamino)benzo[d]oxazol-2(3H)-one trifluoroacetate salt] | < 500 |
| Cc1cc(Nc2ncc(Cl)c(Nc3ccc4oc(=O)[nH]c4c3)n2)cc(N(C)C)c1C [Compound I-83, 5-(5-chloro-2-(3-(dimethylamino)-4,5-dimethylphenylamino)pyrimidin-4-ylamino)benzo[d]oxazol-2(3H)-one trifluoroacetate salt] | < 500 |
| O=c1[nH]c2cc(Nc3nc(Nc4cccc(C(O)C(F)(F)F)c4)ncc3F)ccc2o1 (stereo not drawn) [Compound I-210, 5-fluoro-N2-[3-(1-hydroxy-2,2,2-trifluoroethyl)]phenyl-N4-(2-oxo-2,3-dihydro-1,3-benzoxazol-5-yl)-2,4-pyrimidinediamine] | < 500 |
| COc1cc(Nc2ncc(F)c(Nc3cc(F)c4oc(=O)[nH]c4c3)n2)cc(C)c1OC [Compound I-184, 5-(2-(3,4-dimethoxy-5-methylphenylamino)-5-fluoropyrimidin-4-ylamino)-7-fluorobenzo[d]oxazol-2(3H)-one trifluoroacetate salt] | < 500 |
| COc1cccc(Nc2nccc(Nc3ccc4oc(=O)[nH]c4c3)n2)c1F [Compound I-23, 5-(2-(2-fluoro-3-methoxyphenylamino)pyrimidin-4-ylamino)benzo[d]oxazol-2(3H)-one] | 500 to 5000 |
| Cc1cc(Nc2ncc(C)c(Nc3ccc4oc(=O)[nH]c4c3)n2)ncc1C#N [II-22, N2-(5-cyano-4-methylpyridin-2-yl)-5-methyl-N4-(2-oxo-2,3-dihydro-1,3-benzoxazol-5-yl)-2,4-pyrimidinediamine] | 500 to 5000 |
| COc1cc(Nc2ncc(F)c(Nc3cc(F)c4oc(=O)[nH]c4c3)n2)cc(C)c1C [Compound I-112, 7-fluoro-5-(5-fluoro-2-(3-methoxy-4,5-dimethylphenylamino)pyrimidin-4-ylamino)benzo[d]oxazol-2(3H)-one trifluoroacetate salt] | < 500 |
| COC(=O)c1cnc(Nc2cc(C)c(C)c(C)c2)nc1Nc1ccc2oc(=O)[nH]c2c1 [Compound I-40, 4-(2-Oxo-2,3-dihydro-benzooxazol-5-ylamino)-2-(3,4,5-trimethyl-phenylamino)-pyrimidine-5-carboxylic acid methyl ester trifluoroacetate salt] | < 500 |
| Cc1cnc(Nc2cccc(N(C)C)c2)nc1Nc1ccc2oc(=O)[nH]c2c1 [Compound I-24, 5-[2-(3-Dimethylamino-phenylamino)-5-methyl-pyrimidin-4-ylamino]-3H-benzooxazol-2-one trifluoroacetate salt] | < 500 |
